Patent US12325706B2, “Polymorphic form of sepiapterin” (PTC Therapeutics MP, Inc., priority 2016, dated 2025)
Converted amounts (≈) assume the structure as drawn. “Also recorded” adds a separate entry of the source.

How the values were obtained:
Type in all cases: physicochemical
[1] = Approximate solubility of starting material at RT
[2] = Storage stability of sepiapterin polymorph forms, HPLC purity; design: Impurity RRT 1.06 (HPLC) / Impurity RRT 1.08 (HPLC) / Impurity RRT 1.17 (HPLC) / Impurity RRT 1.21 (HPLC) / Impurity RRT 1.25 (HPLC) / Impurity RRT 0.62 (HPLC) / Impurity RRT 0.89 (HPLC) / Impurity RRT 0.95 (HPLC) / Impurity RRT 0.60 (HPLC): unit not given here; settings: for % of Initial / Purity (area %): 10% RH
Experimental: (§1) Form A and F samples were placed in chambers with silica gel to remove water (the relative humidity was measured to be ˜10% RH) at different temperatures. Form D samples were placed in chambers with water (relative humidity was estimated to be ˜100% RH) at different temperatures.
(§2) The HPLC purities and XRD patterns were obtained for each of Form A/F/D samples stored at various temperatures.
Samples of sepiapterin free base polymorph Forms D, F, and A were stored at room temperature (RT), 35° C., and 50° C. The samples were analyzed by HPLC at 1 week and 4 week intervals.

[3] = Storage stability of sepiapterin polymorph forms, form change by XRD; settings: 10% RH
Experimental: as §1, §2

[4] = Stability of crystalline Form A to grinding and sieving (XRPD); settings: mortar and pestle, 140 mesh sieve
Experimental: A weight loss of 5.3% was observed up to 150° C. on TGA. […] (peak temperature). The starting material contained large particles with size over 100 μm. It was ground and characterized by XRPD, TGA and DSC. […] A weight loss of 1.9% was observed after N2 purging for 30 min to remove the absorbed water, followed by a second-step weight loss of 13.7% from 30° C. to 150° C. on TGA. […] (peak temperature).
Crystalline form A of sepiapterin of the invention was subjected to grinding and sieving process comprising grinding with a mortar and pestle and passing the material through a 140 mesh sieve. […] This process was repeated until all material was passed through the sieve.

[5] = 35° C./10% RH, 1 w, listed as Polymorph A
[6] = 35° C./10% RH, 4 w, listed as Polymorph A
[7] = 50° C./10% RH, 1 w, listed as Polymorph A
[8] = 50° C./10% RH, 4 w, listed as Polymorph A
[9] = RT/10% RH, 1 w, listed as Polymorph A
[10] = RT/10% RH, 4 w, listed as Polymorph A

## C[C@H](O)C(=O)C1=Nc2c(nc(N)[nH]c2=O)NC1 [Form A, sepiapterin]
[1]; organic solvent or mixture, 1,4-Dioxane, RT
  solubility: < 1700 µg/mL
[1]; organic solvent or mixture, 2-MeTHF, RT
  solubility: < 2000 µg/mL
[1]; organic solvent or mixture, ACN, RT
  solubility: < 1700 µg/mL
[1]; organic solvent or mixture, Acetone, RT
  solubility: < 1800 µg/mL
[1]; organic solvent or mixture, CHCl3, RT
  solubility: < 1600 µg/mL
[1]; organic solvent or mixture, DCM, RT
  solubility: < 1500 µg/mL
[1]; organic solvent or mixture, DMAc, RT
  solubility: > 28000 µg/mL
[1]; organic solvent or mixture, DMSO, RT
  solubility: > 34000 µg/mL
[1]; organic solvent or mixture, EtOAc, RT
  solubility: < 2500 µg/mL
[1]; organic solvent or mixture, EtOH, RT
  solubility: < 1500 µg/mL
[1]; organic solvent or mixture, IPA, RT
  solubility: < 1300 µg/mL
[1]; organic solvent or mixture, IPAc, RT
  solubility: < 2700 µg/mL
[1]; organic solvent or mixture, MIBK, RT
  solubility: < 2000 µg/mL
[1]; organic solvent or mixture, MTBE, RT
  solubility: < 2000 µg/mL
[1]; organic solvent or mixture, MeOH, RT
  solubility: 1700 to 3400 µg/mL (≈ 7.17 to 14.3 mM)
[1]; organic solvent or mixture, NMP, RT
  solubility: > 48000 µg/mL
[1]; organic solvent or mixture, THF, RT
  solubility: < 1900 µg/mL
[1]; organic solvent or mixture, Toluene, RT
  solubility: < 2400 µg/mL
[1]; organic solvent or mixture, n-Heptane, RT
  solubility: < 2100 µg/mL
[1]; water, H2O, RT
  solubility: 1600 to 3200 µg/mL (≈ 6.74 to 13.5 mM)
[2]; 35° C./10% RH, 1 w
  Impurity RRT 0.62 (HPLC): 0.24
  Impurity RRT 0.89 (HPLC): <0.05
  Impurity RRT 1.06 (HPLC): <0.05
  Impurity RRT 1.21 (HPLC): <0.05
  Impurity RRT 1.25 (HPLC): <0.05
[2]; [5]
  Impurity RRT 0.95 (HPLC): 1.36
  Impurity RRT 1.08 (HPLC): 0.28
  Impurity RRT 1.17 (HPLC): 0.16
  Sepiapterin RRT 1.00 (HPLC), amount of sepiapterin: 97.97%
[2]; 35° C./10% RH, 4 w
  Impurity RRT 0.62 (HPLC): 1.03
  Impurity RRT 0.89 (HPLC): <0.05
  Impurity RRT 1.06 (HPLC): <0.05
  Impurity RRT 1.08 (HPLC): <0.05
  Impurity RRT 1.21 (HPLC): <0.05
  Impurity RRT 1.25 (HPLC): <0.05
[2]; [6]
  Impurity RRT 0.95 (HPLC): 2.70
  Impurity RRT 1.17 (HPLC): 0.16
  Sepiapterin RRT 1.00 (HPLC), amount of sepiapterin: 96.06%
[2]; 50° C./10% RH, 1 w
  Impurity RRT 0.62 (HPLC): 0.68
  Impurity RRT 0.89 (HPLC): <0.05
  Impurity RRT 1.06 (HPLC): 0.45
  Impurity RRT 1.21 (HPLC): <0.05
  Impurity RRT 1.25 (HPLC): <0.05
[2]; [7]
  Impurity RRT 0.95 (HPLC): 3.48
  Impurity RRT 1.08 (HPLC): 0.08
  Impurity RRT 1.17 (HPLC): 0.16
  Sepiapterin RRT 1.00 (HPLC), amount of sepiapterin: 95.15%
[2]; 50° C./10% RH, 4 w
  Impurity RRT 0.62 (HPLC): 2.59
  Impurity RRT 0.89 (HPLC): 0.06
  Impurity RRT 1.06 (HPLC): <0.05
  Impurity RRT 1.17 (HPLC): 0.17
  Impurity RRT 1.21 (HPLC): 0.06
  Impurity RRT 1.25 (HPLC): 0.11
[2]; [8]
  Impurity RRT 0.95 (HPLC): 7.67
  Impurity RRT 1.08 (HPLC): 0.85
  Sepiapterin RRT 1.00 (HPLC), amount of sepiapterin: 88.49%
[2]; 50° C./10% RH, 4 w, listed as polymorph A
  Sepiapterin RRT 1.00 (HPLC), amount of sepiapterin: 88.49%
[2]; Initial
  Impurity RRT 0.89 (HPLC): <0.05
  Impurity RRT 1.06 (HPLC): <0.05
  Impurity RRT 1.08 (HPLC): <0.05
  Impurity RRT 1.17 (HPLC): 0.17
  Impurity RRT 1.21 (HPLC): <0.05
  Impurity RRT 1.25 (HPLC): <0.05
[2]; Initial, listed as Polymorph A
  Impurity RRT 0.62 (HPLC): 0.08
  Impurity RRT 0.95 (HPLC): 0.42
  Sepiapterin RRT 1.00 (HPLC), amount of sepiapterin: 99.33%
[2]; Initial, listed as polymorph A
  Sepiapterin RRT 1.00 (HPLC), amount of sepiapterin: 99.33%
[2]; RT/10% RH, 1 w
  Impurity RRT 0.62 (HPLC): 0.16
  Impurity RRT 0.89 (HPLC): <0.05
  Impurity RRT 1.06 (HPLC): <0.05
  Impurity RRT 1.17 (HPLC): 0.16
  Impurity RRT 1.21 (HPLC): <0.05
  Impurity RRT 1.25 (HPLC): <0.05
[2]; [9]
  Impurity RRT 0.95 (HPLC): 0.77
  Impurity RRT 1.08 (HPLC): 0.11
  Sepiapterin RRT 1.00 (HPLC), amount of sepiapterin: 98.80%
[2]; RT/10% RH, 4 w
  Impurity RRT 0.62 (HPLC): 0.37
  Impurity RRT 0.89 (HPLC): <0.05
  Impurity RRT 1.06 (HPLC): <0.05
  Impurity RRT 1.08 (HPLC): <0.05
  Impurity RRT 1.17 (HPLC): 0.16
  Impurity RRT 1.21 (HPLC): <0.05
  Impurity RRT 1.25 (HPLC): <0.05
[2]; [10]
  Impurity RRT 0.95 (HPLC): 1.29
  Sepiapterin RRT 1.00 (HPLC), amount of sepiapterin: 98.18%
[2]; initial, before storage, listed as Form λ
  Purity of initial samples by HPLC: 99.3 area %
[2]; storage 1 week, 35° C.
  % of Initial: 98.6%
  Purity (area %): 98.0 area %
[2]; storage 1 week, 50° C.
  % of Initial: 95.8%
  Purity (area %): 95.2 area %
[2]; storage 1 week, RT
  % of Initial: 99.5%
  Purity (area %): 98.8 area %
[2]; storage 4 weeks, 35° C.
  % of Initial: 96.7%
  Purity (area %): 96.1 area %
[2]; storage 4 weeks, 50° C.
  % of Initial: 89.1%
  Purity (area %): 88.5 area %
[2]; storage 4 weeks, RT
  % of Initial: 98.8%
  Purity (area %): 98.2 area %
[2]; storage up to 4 weeks at RT, 35° C., 50° C.
  Stability on storage as determined by HPLC, comparison of forms in words: significantly less stability
[3]; storage 1 week, 35° C.
  Form change: No
[3]; storage 1 week, 50° C.
  Form change: No
[3]; storage 1 week, RT
  Form change: No
[3]; storage 4 weeks, 35° C.
  Form change: No
[3]; storage 4 weeks, 50° C.
  Form change: No
[3]; storage 4 weeks, RT
  Form change: No
[4]
  Physical form stability to grinding and sieving (XRPD): no form change was observed after grinding; also recorded: stable to the grinding and sieving process; also recorded: confirms the physical form stability
